Measured values published in the NIST ThermoML archive (doi:10.1021/acs.jced.8b00979).

Assay: xn = mol fraction of the nth substance listed
Conditions: 100 kPa, Liquid; for mass density: Vibrating tube method; for viscosity: Capillary tube (Ostwald / Ubbelohde) method

CCCC(C)O (stereo not given) [pentan-2-ol] + CCCCCO
Conditions	mass density, 308.15 K [kg/m3]	mass density, 313.15 K [kg/m3]	mass density, 318.15 K [kg/m3]	mass density, 323.15 K [kg/m3]	mass density, 328.15 K [kg/m3]	viscosity, 313.15 K [mPa·s]	viscosity, 318.15 K [mPa·s]	viscosity, 323.15 K [mPa·s]	viscosity, 328.15 K [mPa·s]
x2 = 0	797.05	792.78	788.42	783.99	779.46	1.99	1.706	1.472	1.306
x2 = 0.1	797.85	793.65	789.37	785.02	780.57	2.016	1.726	1.498	1.317
x2 = 0.2	798.63	794.49	790.29	786.01	781.64	2.039	1.751	1.522	1.335
x2 = 0.298	799.35	795.28	791.13	786.92	782.65	2.063	1.778	1.546	1.359
x2 = 0.4	800.06	796.05	791.96	787.82	783.63	2.09	1.809	1.575	1.387
x2 = 0.5	800.76	796.8	792.77	788.69	784.57	2.119	1.842	1.607	1.418
x2 = 0.601	801.45	797.54	793.58	789.56	785.5	2.152	1.878	1.642	1.45
x2 = 0.699	802.11	798.25	794.34	790.38	786.38	2.188	1.916	1.679	1.486
x2 = 0.798	802.74	798.92	795.06	791.17	787.22	2.226	1.956	1.718	1.524
x2 = 0.901	803.33	799.56	795.75	791.88	787.98	2.272	1.997	1.762	1.564
